Source: publication PMC10315697, “Evaluation of ^134Ce/^134La as a PET Imaging Theranostic Pair for ^225Ac α-Radiotherapeutics” (Journal of Nuclear Medicine, 2023)

Key:
[1] = set-up: method as in PMID 34190542; conditions: for nonradioactive cerium ref 14; cited from earlier work
[2] = Ex vivo biodistribution of free and chelated ^134Ce/^225Ac in healthy mice; conditions: healthy wild-type C57BL/6 mice, tail vein injection, 1 h for ^134Ce

| Structure (SMILES) | stability (KLnL) [1] | bone uptake [2] | liver uptake [2] | blood uptake [2] | kidney uptake [2] |
| --- | --- | --- | --- | --- | --- |
| O=C(O)c1cccc(CN2CCOCCOCCN(Cc3cccc(C(=O)O)n3)CCOCCOCC2)n1 [MACROPA] | 15.1 |  |  |  |  |
| [Cl][134Ce]([Cl])[Cl] [^134CeCl3] |  | 15.54 ± 2.69 %ID/g | 71.5 ± 4.3 %ID/g |  |  |
| O=C([O-])CN1CCN(CC(=O)[O-])CCN(CC(=O)[O-])CCN(CC(=O)[O-])CC1.[225Ac+3] [^225Ac-DOTA] |  | 2.26 ± 0.56 %ID/g | 0.28 ± 0.008 %ID/g | 0.23 ± 0.02 %ID/g | 3.07 ± 0.99 %ID/g |
| [225Ac+3].[Cl-].[Cl-].[Cl-] [^225AcCl3] |  | 29.56 ± 2.40 %ID/g | 38.33 ± 6.75 %ID/g |  |  |
